Data reported in BindingDB's records for doi:10.1016/j.bmcl.2005.11.059 (University of Kansas, 2006).

Molecular target: Toll-like receptor 4 (Homo sapiens, UniProt O00206)
Test: Inhibition of induction of NF-kappaB by LPS in HEK293 cells co-transfected with TLR4, CD14 and MD2

Toll-like receptor 4, sequence (O00206 whole entry): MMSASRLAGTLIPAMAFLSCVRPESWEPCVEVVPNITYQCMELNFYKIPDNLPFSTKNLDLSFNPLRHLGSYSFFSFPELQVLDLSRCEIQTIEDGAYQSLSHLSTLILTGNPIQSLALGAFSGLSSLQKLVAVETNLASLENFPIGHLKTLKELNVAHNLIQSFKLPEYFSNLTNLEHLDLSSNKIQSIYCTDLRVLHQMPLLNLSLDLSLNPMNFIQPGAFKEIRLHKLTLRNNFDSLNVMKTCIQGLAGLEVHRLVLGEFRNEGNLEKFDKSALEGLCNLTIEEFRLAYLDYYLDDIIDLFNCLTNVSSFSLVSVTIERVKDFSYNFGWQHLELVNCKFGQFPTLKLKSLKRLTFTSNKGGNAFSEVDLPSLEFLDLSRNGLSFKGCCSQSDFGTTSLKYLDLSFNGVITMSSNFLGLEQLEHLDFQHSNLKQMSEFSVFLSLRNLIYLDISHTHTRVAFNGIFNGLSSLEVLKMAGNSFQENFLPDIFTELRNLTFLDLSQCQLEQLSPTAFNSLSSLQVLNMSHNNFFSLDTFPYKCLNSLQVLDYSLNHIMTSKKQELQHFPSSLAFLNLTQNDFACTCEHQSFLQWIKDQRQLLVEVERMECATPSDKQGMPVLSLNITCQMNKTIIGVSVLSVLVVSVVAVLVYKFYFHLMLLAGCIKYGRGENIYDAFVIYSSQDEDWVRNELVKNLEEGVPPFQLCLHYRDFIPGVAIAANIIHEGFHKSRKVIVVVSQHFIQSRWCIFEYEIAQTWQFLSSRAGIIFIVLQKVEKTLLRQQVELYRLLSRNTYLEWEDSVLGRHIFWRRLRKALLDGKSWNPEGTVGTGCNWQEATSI

Compound | IC50
CCOc1c(C=NN=C(N)N)ccc(C=NN=C(N)N)c1OCC | 35.6 µM
COc1c(C=NN=C(N)N)ccc(C=NN=C(N)N)c1OC | 175 µM
NC(N)=NN=Cc1ccc(C=NN=C(N)N)cc1 | 164 µM
C=CCOc1c(C=NN=C(N)N)ccc(C=NN=C(N)N)c1OCC=C | 61.4 µM
NC(N)=NN=Cc1ccc(C=NN=C(N)N)c(O)c1O | 59.1 µM

The remaining lines, values ahead:

IC50 | Compound
4.5 µM | CCCCCCCCOc1c(C=NN=C(N)N)ccc(C=NN=C(N)N)c1OCCCCCCCC
9.4 µM | CCCCOc1c(C=NN=C(N)N)ccc(C=NN=C(N)N)c1OCCCC
27.6 µM | CCCOc1c(C=NN=C(N)N)ccc(C=NN=C(N)N)c1OCCC
10.5 µM | CCCCCOc1c(C=NN=C(N)N)ccc(C=NN=C(N)N)c1OCCCCC
6.11 µM | CCCCCCOc1c(C=NN=C(N)N)ccc(C=NN=C(N)N)c1OCCCCCC
190 µM | CCCCCCCCCCCCCCOc1c(C=NN=C(N)N)ccc(C=NN=C(N)N)c1OCCCCCCCCCCCCCC
